We go through two compounds from patent US7820716B2 (Mai De Ltd, priority 2007, dated 2010).

For one series, the system named is norepinephrine uptake. As to conditions: background statement; cited from earlier work.
Another series deals with serotonin uptake. The conditions noted are these: background statement; cited from earlier work.
Series [1] can be described thus: Stability study of bulk material, stability-indicating HPLC. It is filed as physicochemical. The protocol: Changes are monitored using a stability-indicating HPLC method. Results were calculated by normalized peak area (npa). Degradants are identified by comparison of their relative retention times against impurity standards.

As for `CN(C)CC(c1ccc(O)cc1)C1(O)CCCCC1` (stereo not shown) [O-desmethyl venlafaxine], the norepinephrine uptake result with norepinephrine uptake was “inhibit”. In addition, the serotonin uptake result in the series with serotonin uptake is on record as “inhibit”.
With “(1-[2-(dimethylamino)-1-(4-phenol)ethyl]-cyclohexanol succinate [Form V]”, in series [1] (elevated temperatures and humidity (40° C./75%)), the “polymorph and chemical stability demonstrated” value was determined as 2 months. Besides, in series [1] (stored for over 3 to 6 months under normal conditions of temperature and humidity), the “polymorph stability and formation of known and unknown degradants” value is given as “stable”.
